According to ChEMBL document CHEMBL4396958, “Anti-inflammatory phenylpropanoid glycosides from the fruits of Forsythia suspensa” (Bioorg Med Chem Lett, 2019):

How the values were obtained:
Macrophage [1] = assay: Inhibition of TNFalpha expression in LPS-induced macrophages (unknown origin) at 10 uM incubated for 24 hrs by ELISA relative to control; assay type: functional
Macrophage [2] = assay: Inhibition of TNFalpha expression in LPS-induced macrophages (unknown origin) incubated for 24 hrs by ELISA; assay type: functional, cell-based

Row | Compound | inhibition at 10 µM (Macrophage [1]) [%] | IC50 (Macrophage [2]) [nM]
1 | O=C(/C=C/c1ccc(O)cc1)OC[C@H]1O[C@@H](Oc2ccc(/C=C/C(=O)OC[C@H]3OC(O)[C@H](O)[C@@H](O)[C@@H]3O)cc2O)[C@H](O)[C@@H](O)[C@@H]1O (some centres undefined) | 98.3 | 1050
2 | C[C@@H]1C[C@H]2[C@@H]3CCC4=CC(=O)C=C[C@]4(C)[C@@]3(F)[C@@H](O)C[C@]2(C)[C@@]1(O)C(=O)CO [DEXAMETHASONE] | 82.5 | 134
